Laboratory results published in PubChem BioAssay AID330 (DTP/NCI, 2004).
Inconclusive results and toxic doses are left out.

System: P388 leukemia ip, CD2F1 mice, survival T/C
Assay: NCI In Vivo Anticancer Drug Screen. Data for tumor model P388 Leukemia (intraperitoneal) in CD2F1 (CDF1) mice
Conditions: endpoint: median survival time, higher = longer survival
Procedure, shortened: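 Mice carrying the transplanted tumor received test compound or vehicle. Survival was recorded in each group, and the value is the treated-group measurement divided by that of the vehicle-treated control group.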

[1] = dose: 100.0 mg/kg/injection, schedule: Q01DX009 (ip), vehicle: Klucel (hydroxypropylcellulose) (HPC)

With `O=C(O)C1(C(=O)O)CCC1.[NH2-].[NH2-].[Pt+2]` the T/C (dose: 6.25 mg/kg/injection, schedule: Q01DX005 (ip), vehicle: water) was 152 % of control, the T/C (dose: 6.25 mg/kg/injection, schedule: Q01DX009 (ip), vehicle: water) was 167 % of control and the T/C (dose: 12.5 mg/kg/injection, schedule: Q01DX001 (im), vehicle: suspension in saline) was 105 % of control. For the same compound, the T/C (dose: 12.5 mg/kg/injection, schedule: Q01DX001 (ip), vehicle: suspension in saline) was 117 % of control, the T/C (dose: 12.5 mg/kg/injection, schedule: Q01DX001 (iv), vehicle: suspension in saline) was 108 % of control and the T/C (dose: 12.5 mg/kg/injection, schedule: Q01DX001 (sc), vehicle: suspension in saline) was 103 % of control. The T/C (dose: 12.5 mg/kg/injection, schedule: Q01DX005 (ip), vehicle: water) was 166 % of control, the T/C (dose: 12.5 mg/kg/injection, schedule: Q01DX009 (ip), vehicle: saline) was 113 % of control and the T/C (dose: 12.5 mg/kg/injection, schedule: Q01DX009 (ip), vehicle: water) was 189 % of control. The T/C (dose: 12.5 mg/kg/injection, schedule: Q04DX003 (iv), vehicle: saline) was 110 % of control, the T/C (dose: 25.0 mg/kg/injection, schedule: Q01DX001 (im), vehicle: suspension in saline) was 117 % of control and the T/C (dose: 25.0 mg/kg/injection, schedule: Q01DX001 (ip), vehicle: saline) was 107 % of control. The T/C (dose: 25.0 mg/kg/injection, schedule: Q01DX001 (ip), vehicle: suspension in saline) was 121 % of control, the T/C (dose: 25.0 mg/kg/injection, schedule: Q01DX001 (iv), vehicle: suspension in saline) was 106 % of control and the T/C (dose: 25.0 mg/kg/injection, schedule: Q01DX001 (oral), vehicle: suspension in saline) was 100 % of control. For the same compound, the T/C (dose: 25.0 mg/kg/injection, schedule: Q01DX001 (sc), vehicle: suspension in saline) was 107 % of control, the T/C (dose: 25.0 mg/kg/injection, schedule: Q01DX005 (ip), vehicle: water) was 194 % of control and the T/C (dose: 25.0 mg/kg/injection, schedule: Q01DX005 (iv), vehicle: water) was 90 % of control. For the same compound, the T/C (dose: 25.0 mg/kg/injection, schedule: Q01DX009 (ip), vehicle: saline) was 152 % of control, the T/C (dose: 25.0 mg/kg/injection, schedule: Q01DX009 (ip), vehicle: water) was 112 % of control and the T/C (dose: 25.0 mg/kg/injection, schedule: Q04DX003 (ip), vehicle: saline) was 114 % of control. The T/C (dose: 25.0 mg/kg/injection, schedule: Q04DX003 (ip), vehicle: water) was 186 % of control, the T/C (dose: 25.0 mg/kg/injection, schedule: Q04DX003 (iv), vehicle: saline) was 113 % of control and the T/C (dose: 50.0 mg/kg/injection, schedule: Q01DX001 (im), vehicle: suspension in saline) was 110 % of control. For the same compound, the T/C (dose: 50.0 mg/kg/injection, schedule: Q01DX001 (ip), vehicle: suspension in saline) was 124 % of control, the T/C (dose: 50.0 mg/kg/injection, schedule: Q01DX001 (ip), vehicle: water) was 161 % of control and the T/C (dose: 50.0 mg/kg/injection, schedule: Q01DX001 (iv), vehicle: suspension in saline) was 110 % of control. The T/C (dose: 50.0 mg/kg/injection, schedule: Q01DX001 (oral), vehicle: suspension in saline) was 103 % of control, the T/C (dose: 50.0 mg/kg/injection, schedule: Q01DX001 (sc), vehicle: suspension in saline) was 110 % of control and the T/C (dose: 50.0 mg/kg/injection, schedule: Q01DX009 (ip), vehicle: saline) was 100 % of control. The T/C (dose: 50.0 mg/kg/injection, schedule: Q04DX003 (ip), vehicle: water) was 217 % of control, the T/C (dose: 50.0 mg/kg/injection, schedule: Q04DX003 (iv), vehicle: saline) was 117 % of control and the T/C (dose: 50.0 mg/kg/injection, schedule: Q04DX003 (oral), vehicle: saline) was 116 % of control. The T/C (dose: 100.0 mg/kg/injection, schedule: Q01DX001 (im), vehicle: suspension in saline) was 111 % of control, the T/C (dose: 100.0 mg/kg/injection, schedule: Q01DX001 (ip), vehicle: water) was 164 % of control and the T/C (dose: 100.0 mg/kg/injection, schedule: Q01DX001 (iv), vehicle: saline) was 105 % of control. The T/C (dose: 100.0 mg/kg/injection, schedule: Q01DX001 (iv), vehicle: suspension in saline) was 115 % of control, the T/C (dose: 100.0 mg/kg/injection, schedule: Q01DX001 (iv), vehicle: water) was 93 % of control and the T/C (dose: 100.0 mg/kg/injection, schedule: Q01DX001 (sc), vehicle: suspension in saline) was 120 % of control. The T/C (dose: 100.0 mg/kg/injection, schedule: Q04DX003 (ip), vehicle: saline) was 170 % of control, the T/C (dose: 100.0 mg/kg/injection, schedule: Q04DX003 (ip), vehicle: water) was 96 % of control and the T/C (dose: 100.0 mg/kg/injection, schedule: Q04DX003 (iv), vehicle: saline) was 123 % of control. For the same compound, the T/C (dose: 100.0 mg/kg/injection, schedule: Q04DX003 (oral), vehicle: saline) was 114 % of control, the T/C (dose: 200.0 mg/kg/injection, schedule: Q01DX001 (im), vehicle: suspension in saline) was 105 % of control and the T/C (dose: 200.0 mg/kg/injection, schedule: Q01DX001 (iv), vehicle: suspension in saline) was 100 % of control. For the same compound, the T/C (dose: 200.0 mg/kg/injection, schedule: Q01DX001 (oral), vehicle: saline) was 104 % of control, the T/C (dose: 200.0 mg/kg/injection, schedule: Q01DX001 (oral), vehicle: suspension in saline) was 110 % of control and the T/C (dose: 200.0 mg/kg/injection, schedule: Q01DX001 (sc), vehicle: suspension in saline) was 107 % of control. For the same compound, the T/C (dose: 200.0 mg/kg/injection, schedule: Q04DX003 (oral), vehicle: saline) was 117 % of control, the T/C (dose: 400.0 mg/kg/injection, schedule: Q01DX001 (iv), vehicle: saline) was 91 % of control and the T/C (dose: 400.0 mg/kg/injection, schedule: Q01DX001 (oral), vehicle: saline) was 100 % of control. For the same compound, the T/C (dose: 400.0 mg/kg/injection, schedule: Q01DX001 (oral), vehicle: suspension in saline) was 101 % of control and the T/C (dose: 400.0 mg/kg/injection, schedule: Q04DX003 (oral), vehicle: saline) was 122 % of control.

For `Nc1ccc([N+](=O)[O-])cc1Nc1c2ccccc2nc2ccccc12`, the T/C (dose: 50.0 mg/kg/injection, schedule: Q01DX009 (ip), vehicle: Klucel (hydroxypropylcellulose) (HPC)) was 108 % of control and the T/C [1] was 107 % of control.

In the case of `C=C/C=C/NC(=O)N1CCCC1`, the T/C (dose: 100.0 mg/kg/injection, schedule: Q04DX002 (ip), vehicle: suspension in saline) is reported as 102 % of control, the T/C (dose: 200.0 mg/kg/injection, schedule: Q04DX002 (ip), vehicle: suspension in saline) is reported as 102 % of control and the T/C (dose: 400.0 mg/kg/injection, schedule: Q04DX002 (ip), vehicle: suspension in saline) is reported as 105 % of control.

`CC(C)(OC(=O)NC(CC(N)=O)C(=O)O)c1ccc(-c2ccccc2)cc1` (stereo not drawn) was tested, and the T/C (dose: 50.0 mg/kg/injection, schedule: Q01DX005 (ip), vehicle: Klucel (hydroxypropylcellulose) (HPC)) was 98 % of control, the T/C (dose: 100.0 mg/kg/injection, schedule: Q01DX005 (ip), vehicle: Klucel (hydroxypropylcellulose) (HPC)) was 104 % of control and the T/C (dose: 200.0 mg/kg/injection, schedule: Q01DX005 (ip), vehicle: Klucel (hydroxypropylcellulose) (HPC)) was 90 % of control.

For `O=C(Nc1ccc([N+](=O)[O-])cc1)Nc1ccc([N+](=O)[O-])cc1` (tested in a mixture with another compound), the T/C [1] was 103 % of control, the T/C (dose: 100.0 mg/kg/injection, schedule: Q01DX009 (ip), vehicle: saline with Tween-80) was 100 % of control and the T/C (dose: 200.0 mg/kg/injection, schedule: Q01DX009 (ip), vehicle: Klucel (hydroxypropylcellulose) (HPC)) was 117 % of control. The T/C (dose: 200.0 mg/kg/injection, schedule: Q01DX009 (ip), vehicle: saline with Tween-80) was 100 % of control, the T/C (dose: 400.0 mg/kg/injection, schedule: Q01DX009 (ip), vehicle: Klucel (hydroxypropylcellulose) (HPC)) was 117 % of control and the T/C (dose: 400.0 mg/kg/injection, schedule: Q01DX009 (ip), vehicle: saline with Tween-80) was 104 % of control.

With `CCOC(=O)CN(CC(=O)OCC)c1ccccc1OCCOc1ccccc1N(CC(=O)OCC)CC(=O)OCC` the T/C (dose: 60.0 mg/kg/injection, schedule: Q01DX005 (ip), vehicle: Klucel (hydroxypropylcellulose) (HPC)) was 95 % of control, the T/C (dose: 120.0 mg/kg/injection, schedule: Q01DX005 (ip), vehicle: Klucel (hydroxypropylcellulose) (HPC)) was 96 % of control and the T/C (dose: 240.0 mg/kg/injection, schedule: Q01DX005 (ip), vehicle: Klucel (hydroxypropylcellulose) (HPC)) was 93 % of control.

For `CCC(CC)CS(=O)(=O)OCCCCOS(=O)(=O)CC(CC)CC`, the T/C (dose: 50.0 mg/kg/injection, schedule: Q01DX005 (ip), vehicle: saline) was 99 % of control, the T/C (dose: 100.0 mg/kg/injection, schedule: Q01DX005 (ip), vehicle: saline) was 107 % of control and the T/C (dose: 200.0 mg/kg/injection, schedule: Q01DX005 (ip), vehicle: saline) was 111 % of control.

In the case of `CCOC(OCC)c1ccc([N+](=O)[O-])cc1`, the T/C (dose: 100.0 mg/kg/injection, schedule: Q04DX003 (ip), vehicle: saline with Tween-80) is reported as 106 % of control, the T/C (dose: 200.0 mg/kg/injection, schedule: Q04DX003 (ip), vehicle: saline with Tween-80) is reported as 100 % of control and the T/C (dose: 400.0 mg/kg/injection, schedule: Q04DX003 (ip), vehicle: saline with Tween-80) is reported as 117 % of control.

`CCOc1cccc(C=N)c1O` was tested, and the T/C (dose: 60.0 mg/kg/injection, schedule: Q01DX005 (ip), vehicle: saline with Tween-80) was 111 % of control and the T/C (dose: 120.0 mg/kg/injection, schedule: Q01DX005 (ip), vehicle: saline with Tween-80) was 105 % of control.
